# Reference: patent publication US8921569B2, “Rationally improved isoniazid and ethionamide derivatives and activity through selective isotopic substitution” (STC.UNM, priority 2007, dated 2014)
# Columns and labels:
# M bovis BCG [1] = assay type: cell-based; settings: O 1 micrograms per ml, 3 or 4 days after treatment, triplicate cultures
# M bovis BCG [2] = assay type: cell-based; settings: O 1 micrograms per ml, cultures at day 4 plated out
compound,measurement,setting,value
"NN[13C](=O)c1ccncc1 [C13 INH, 4-pyridine-[^13C]carboxylic acid hydrazide]","antimicrobial effects by cultures optical density, compared with 12C isoniazid",M bovis BCG [1],significant increase in activity
same,"activity by CFU (colony forming units), compared with 12C isoniazid",M bovis BCG [2],marked expected increase in activity
